In data set [1] the test system is DOHH-2. Description: Cytotoxicity against human DOHH-2 cells up to 20 uM measured after 24 hrs. The format is functional, cell-based.
The target in data set [2] is T1, Protein disulfide-isomerase A6 (Homo sapiens) (UniProt Q15084).
T1 sequence (whole entry): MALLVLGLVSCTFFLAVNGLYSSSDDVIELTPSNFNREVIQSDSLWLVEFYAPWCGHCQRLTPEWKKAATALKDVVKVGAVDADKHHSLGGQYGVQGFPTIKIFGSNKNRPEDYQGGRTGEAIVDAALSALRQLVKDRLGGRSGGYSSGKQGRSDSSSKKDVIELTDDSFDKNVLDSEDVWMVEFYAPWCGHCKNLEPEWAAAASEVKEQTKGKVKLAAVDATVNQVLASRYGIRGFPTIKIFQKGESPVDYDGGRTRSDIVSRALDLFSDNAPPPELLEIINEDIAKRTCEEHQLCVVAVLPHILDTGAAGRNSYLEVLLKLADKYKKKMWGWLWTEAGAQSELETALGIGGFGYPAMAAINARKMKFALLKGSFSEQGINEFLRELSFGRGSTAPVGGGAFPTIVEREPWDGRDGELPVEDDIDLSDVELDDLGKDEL
Put plainly: Binding affinity to PDIA6 in human DOHH-2 cells measured after 6 hrs by pull-down assay. As to conditions: DDE = dose-dependent effect. The format is cell-based.

Data set [3] in a line: GSH reactivity in pH 7.4 buffer assessed as GSH adduct formation by measuring molecular weight at 1 mM by Q-TOF LC/MS analysis. Format: physicochemical. As to conditions: pH 7.4, 1000 µM.
Data set [4] addresses T2, Peroxiredoxin-6 (Homo sapiens) (UniProt P30041).
T2 sequence (whole entry): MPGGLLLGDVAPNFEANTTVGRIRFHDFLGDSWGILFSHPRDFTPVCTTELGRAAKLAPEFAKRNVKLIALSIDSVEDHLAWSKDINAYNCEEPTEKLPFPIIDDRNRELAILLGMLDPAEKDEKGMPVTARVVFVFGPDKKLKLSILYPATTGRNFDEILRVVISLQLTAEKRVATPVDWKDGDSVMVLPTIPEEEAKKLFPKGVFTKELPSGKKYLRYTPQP
Description: Binding affinity to PRDX6 in human DOHH-2 cells by MS analysis. Format: cell-based.

For data set [5], the target named is T3, D-3-phosphoglycerate dehydrogenase (Homo sapiens) (UniProt O43175).
T3 sequence (whole entry): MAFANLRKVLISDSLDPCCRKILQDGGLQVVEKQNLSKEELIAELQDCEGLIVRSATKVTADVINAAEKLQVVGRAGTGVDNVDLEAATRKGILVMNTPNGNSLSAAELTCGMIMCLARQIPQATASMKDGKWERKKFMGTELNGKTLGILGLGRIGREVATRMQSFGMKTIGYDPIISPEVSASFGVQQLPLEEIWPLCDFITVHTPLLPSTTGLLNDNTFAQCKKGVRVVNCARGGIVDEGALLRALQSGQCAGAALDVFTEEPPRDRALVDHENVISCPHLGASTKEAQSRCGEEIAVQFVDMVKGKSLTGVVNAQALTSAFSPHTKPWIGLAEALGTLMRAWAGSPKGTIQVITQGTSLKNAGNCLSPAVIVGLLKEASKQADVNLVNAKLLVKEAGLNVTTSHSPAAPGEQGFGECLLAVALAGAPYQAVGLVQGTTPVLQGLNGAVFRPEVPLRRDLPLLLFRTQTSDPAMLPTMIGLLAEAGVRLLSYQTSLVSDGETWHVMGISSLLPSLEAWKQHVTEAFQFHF
Description: Binding affinity to D-3-phosphoglycerate dehydrogenase in human DOHH-2 cells by MS analysis. Format: cell-based.

In data set [6] the target is Glutathione S-transferase 3, mitochondrial (Homo sapiens) (UniProt O14880). Put plainly: Binding affinity to MGST3 in human MDA-MB-453 cells measured after 6 hrs by pull-down assay. As to conditions: dose <= 20.0 µM, DDE = dose-dependent effect. Format: cell-based.
Chain of Glutathione S-transferase 3, mitochondrial (Homo sapiens) (O14880 whole entry): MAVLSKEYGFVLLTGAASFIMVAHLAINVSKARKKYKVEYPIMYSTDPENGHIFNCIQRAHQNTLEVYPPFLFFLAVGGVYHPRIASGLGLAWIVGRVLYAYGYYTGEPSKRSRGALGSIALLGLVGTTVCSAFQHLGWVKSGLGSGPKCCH
In data set [7] the target is Elongation factor 2 (Homo sapiens) (UniProt P13639). Put plainly: Binding affinity to elongation factor 2 in human DOHH-2 cells by MS analysis. The format is cell-based.
Data set [8] concerns the target Glutathione S-transferase P (Homo sapiens) (UniProt P09211). Put plainly: Binding affinity to GSTP1 in human MDA-MB-453 cells measured after 6 hrs by pull-down assay. The format is cell-based. As to conditions: dose <= 20.0 µM, DDE = dose-dependent effect.
For data set [9], the target named is Elongation factor 2 (Homo sapiens) (UniProt P13639). Put plainly: Binding affinity to elongation factor 2 in human DOHH-2 cells measured after 6 hrs by pull-down assay. The format is cell-based. As to conditions: DDE = dose-dependent effect.
The target in data set [10] is Glutathione S-transferase 3, mitochondrial (Homo sapiens) (UniProt O14880). Description: Binding affinity to MGST3 in human DOHH-2 cells by MS analysis. Format: cell-based.
Data set [11] addresses T4, Peroxiredoxin-5, mitochondrial (Homo sapiens) (UniProt P30044).
T4 sequence (whole entry): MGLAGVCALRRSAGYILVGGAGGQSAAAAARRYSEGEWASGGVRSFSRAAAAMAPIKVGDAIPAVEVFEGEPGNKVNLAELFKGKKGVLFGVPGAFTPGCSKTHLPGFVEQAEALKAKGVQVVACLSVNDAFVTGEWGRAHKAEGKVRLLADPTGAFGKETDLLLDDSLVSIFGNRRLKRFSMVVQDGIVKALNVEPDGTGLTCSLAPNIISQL
Put plainly: Binding affinity to PRDX5 in human MDA-MB-453 cells measured after 6 hrs by pull-down assay. The format is cell-based. As to conditions: dose <= 20.0 µM, DDE = dose-dependent effect.

In data set [12] the target is T5, Protein disulfide-isomerase A3 (Homo sapiens) (UniProt P30101).
T5 sequence (whole entry): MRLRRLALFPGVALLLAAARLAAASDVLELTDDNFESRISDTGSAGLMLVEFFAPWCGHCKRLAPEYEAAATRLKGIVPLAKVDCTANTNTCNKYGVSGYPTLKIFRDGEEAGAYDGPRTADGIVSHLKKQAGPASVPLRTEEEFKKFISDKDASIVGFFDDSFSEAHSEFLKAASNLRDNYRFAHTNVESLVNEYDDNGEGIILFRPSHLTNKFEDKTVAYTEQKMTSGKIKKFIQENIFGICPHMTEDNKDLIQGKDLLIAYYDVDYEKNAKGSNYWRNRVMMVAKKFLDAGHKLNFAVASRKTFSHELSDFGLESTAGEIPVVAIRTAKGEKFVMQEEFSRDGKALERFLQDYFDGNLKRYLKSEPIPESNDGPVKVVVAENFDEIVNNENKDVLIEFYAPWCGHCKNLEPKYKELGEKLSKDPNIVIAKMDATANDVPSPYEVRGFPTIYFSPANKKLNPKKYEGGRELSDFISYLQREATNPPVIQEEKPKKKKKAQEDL
Description: Binding affinity to PDIA3 in human DOHH-2 cells by MS analysis. Format: cell-based.

Data set [13] has as its system DOHH-2. Description: Up regulation of HSP90alpha expression in human DOHH-2 cells at 8 uM measured after 4 to 24 hrs by Western blot analysis. Format: functional, cell-based. As to conditions: time 4-24 hrs.
Data set [14] addresses Glutathione S-transferase P (Homo sapiens) (UniProt P09211). Description: Binding affinity to GSTP1 in human DOHH-2 cells by MS analysis. The format is cell-based.
The target in data set [15] is T3, D-3-phosphoglycerate dehydrogenase (Homo sapiens). Put plainly: Binding affinity to D-3-phosphoglycerate dehydrogenase in human MDA-MB-453 cells measured after 6 hrs by pull-down assay. The format is cell-based. As to conditions: dose <= 20.0 µM, DDE = dose-dependent effect.

The source made the active and inactive calls. The rule behind the calls is not given here.

Chain of Glutathione S-transferase P (Homo sapiens) (P09211 2-210 limits assumed): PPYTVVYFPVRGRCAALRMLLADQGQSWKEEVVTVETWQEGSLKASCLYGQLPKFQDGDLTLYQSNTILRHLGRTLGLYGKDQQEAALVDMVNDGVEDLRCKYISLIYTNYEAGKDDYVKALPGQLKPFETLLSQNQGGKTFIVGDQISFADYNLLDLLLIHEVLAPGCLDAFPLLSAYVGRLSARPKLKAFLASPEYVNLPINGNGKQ

`C#Cc1cccc(C#CS(N)(=O)=O)c1`: the outcome in data set [1], in [4], in [5], in data set [7], in data set [10] and in [12] was Active. In addition, the result in [13] and in data set [14] was Active. Also, the Activity entry was “Dde” in data set [2]; 513 Da in data set [3]; “Dde” in data set [6]; “Dde” in data set [8]; “Dde” in data set [9]; “Dde” in data set [11]. Also, in [15], the Activity result is “Dde”.

For the origin of these results see ChEMBL document CHEMBL5143564, “PES derivative PESA is a potent tool to globally profile cellular targets of PES” (Bioorg Med Chem Lett, 2022).
